Source: publication PMC6434189, “Peperomin E and its orally bioavailable analog induce oxidative stress-mediated apoptosis of acute myeloid leukemia progenitor cells by targeting thioredoxin reductase” (Redox Biology, 2019)

Experiments:
[1] = target: T1, TrxR1 nSec498 (Homo sapiens, UniProt Q16881); assay: BLI binding assay, TrxR1 without Sec498; conditions: NADPH reduced TrxR1 nSec498 0.9 μM
T1 construct: protein fragment, without selenocysteine residue; purchased Abcam ab168011
T1 sequence (Q16881 11-497 isoform Q16881-5): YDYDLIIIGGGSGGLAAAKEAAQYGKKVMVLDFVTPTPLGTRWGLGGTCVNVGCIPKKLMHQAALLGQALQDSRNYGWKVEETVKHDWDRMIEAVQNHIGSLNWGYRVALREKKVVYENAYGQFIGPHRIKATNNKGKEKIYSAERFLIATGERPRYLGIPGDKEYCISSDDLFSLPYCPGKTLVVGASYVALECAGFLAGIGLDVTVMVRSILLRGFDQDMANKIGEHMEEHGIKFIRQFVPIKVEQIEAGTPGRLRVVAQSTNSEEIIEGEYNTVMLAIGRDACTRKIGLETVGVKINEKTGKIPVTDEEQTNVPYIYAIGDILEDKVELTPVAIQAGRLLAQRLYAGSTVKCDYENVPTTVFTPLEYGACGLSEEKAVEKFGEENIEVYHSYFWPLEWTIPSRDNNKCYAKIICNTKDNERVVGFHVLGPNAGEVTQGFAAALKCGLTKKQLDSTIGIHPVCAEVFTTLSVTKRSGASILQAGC
Method: The binding kinetics of PepE or PepA to purified recombinant proteins were determined using BLI on an Octet RED 96 system (ForteBio, Shanghai, China) following the manufacturer's protocol. All interaction analyses were performed at 25 °C in PBS with 0.2% DMSO. Purified recombinant proteins (0.9 μM, the TrxR1 full length and TrxR1 protein fragment were pre-reduced by 400 μM of NADPH before test) were pre-labeled with biotin using […] (Abcam) following the manufacturer's instruction. Loading of the Dip and Read Super Streptavidin (SSA) Biosensors (ForteBio) were conducted by exposing biotinylated proteins to biosensor tips for 2 h. The 96-well microplates used in the Octet were filled with 200 μL sample or buffer per well and agitated at 1000 rpm. The loaded biosensors were washed in buffer for 600 s and transferred to wells containing PepE at concentrations of 0.625, 1.25, 2.5, 5, and 10 μM or PepA at concentrations of 1.25, 2.5, 5, 10 and 20 μM, respectively, in the buffer. […] Reference measurements were conducted using the buffer instead of PepE (or PepA). A parallel set of SA unloaded biosensors was prepared to act as a control. […] Kinetic parameters (Kon and Kdis) and affinity (KD) were determined from a global fit to a 1:1 binding model of the data between proteins and PepE using Octet software (ForteBio).

[2] = target: T2, GCLC (Homo sapiens, UniProt P48506); assay: BLI binding assay, GCLC
T2 construct: purchased Abcam
T2 sequence (P48506 1-637): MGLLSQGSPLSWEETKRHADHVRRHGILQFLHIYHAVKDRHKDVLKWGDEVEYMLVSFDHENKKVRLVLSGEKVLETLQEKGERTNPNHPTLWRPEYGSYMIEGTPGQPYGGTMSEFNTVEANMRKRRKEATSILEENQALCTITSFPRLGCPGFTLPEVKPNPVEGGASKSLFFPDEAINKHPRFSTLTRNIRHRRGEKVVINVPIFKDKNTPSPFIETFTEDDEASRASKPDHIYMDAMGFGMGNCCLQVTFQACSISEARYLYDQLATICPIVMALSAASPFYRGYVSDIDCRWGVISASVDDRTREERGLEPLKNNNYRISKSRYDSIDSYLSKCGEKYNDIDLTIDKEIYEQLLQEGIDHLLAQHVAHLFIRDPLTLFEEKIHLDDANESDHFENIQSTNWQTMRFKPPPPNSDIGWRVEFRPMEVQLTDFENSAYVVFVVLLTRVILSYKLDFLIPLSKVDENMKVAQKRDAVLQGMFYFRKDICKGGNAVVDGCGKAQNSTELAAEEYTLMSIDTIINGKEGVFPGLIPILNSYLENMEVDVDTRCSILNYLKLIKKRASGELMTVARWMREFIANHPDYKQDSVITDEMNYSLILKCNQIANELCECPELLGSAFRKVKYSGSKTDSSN
Method: The binding kinetics of PepE or PepA to purified recombinant proteins were determined using BLI on an Octet RED 96 system (ForteBio, Shanghai, China) following the manufacturer's protocol. All interaction analyses were performed at 25 °C in PBS with 0.2% DMSO. Purified recombinant proteins (0.9 μM, the TrxR1 full length and TrxR1 protein fragment were pre-reduced by 400 μM of NADPH before test) were pre-labeled with biotin using […] (Abcam) following the manufacturer's instruction. Loading of the Dip and Read Super Streptavidin (SSA) Biosensors (ForteBio) were conducted by exposing biotinylated proteins to biosensor tips for 2 h. The 96-well microplates used in the Octet were filled with 200 μL sample or buffer per well and agitated at 1000 rpm. The loaded biosensors were washed in buffer for 600 s and transferred to wells containing PepE at concentrations of 0.625, 1.25, 2.5, 5, and 10 μM or PepA at concentrations of 1.25, 2.5, 5, 10 and 20 μM, respectively, in the buffer. […] Reference measurements were conducted using the buffer instead of PepE (or PepA). A parallel set of SA unloaded biosensors was prepared to act as a control. The sample-sensorgrams were corrected by subtracting the double reference curve. Kinetic parameters (Kon and Kdis) and affinity (KD) were determined from a global fit to a 1:1 binding model of the data between proteins and PepE using Octet software (ForteBio).

[3] = system: AML CD34+ cells; assay: Release study of DMAPE in vitro, AML CD34+ cells (UFLC-MS/MS); assay type: in vitro ADME, human; conditions: 10 μM DMAPE, 24 h
Method: 1 × 10^5 cells (including sorted CD34^+ KG-1a cells and NBM cells) were seeded at 48-well plates (Corning, New York, USA) in the IMDM-based serum-free media for 1 h. The cells were then incubated with 10 μM DMAPE at 37 °C in the 5% CO2 incubator for 0, 12 or 24 h. The culture supernatant was collected by centrifugation at 3000 rpm for 10 min and evaporated to dryness at 30 °C using a CentriVap vacuum centrifugal concentrator. The resulting residue was reconstituted in 100 μL methanol, vortexed and centrifuged at 12000 rpm for 10 min. A 2 μL aliquot of the supernatant was injected for UFLC-MS/MS analysis (UFLC-MS/MS analysis method same as the pharmacokinetic study of DMAPE, see Additional method in Supplementary Materials).

| Compound | Kd [1] | Kd [2] | kon [2] | koff ([2]; read-out: Kdis) | DMAPE in culture with AML CD34+ cells [3] |
| --- | --- | --- | --- | --- | --- |
| C=C1C(=O)OC[C@H]1C(c1cc(OC)c2c(c1)OCO2)c1cc(OC)c2c(c1)OCO2 [PepE, Peperomin E] | 11.9 µM | 1.34 mM | 465 M⁻¹ s⁻¹ | 0.625 s⁻¹ | – |
| COc1cc(C(c2cc(OC)c3c(c2)OCO3)[C@@H]2COC(=O)[C@H]2CN(C)CCO)cc2c1OCO2 [DMAPE, (2S,3S)-6-Methyl (hydroxyethyl) amino-2,6-dihydropeperomin E] | – | – | – | – | could not be detected |
